Results from article PMC4620497 (Scientific Reports, 2015).

Columns and labels:
[1] = molecular target: T1, ERBB3 (Homo sapiens, UniProt P21860); assay: KINOMEscan panel screen; assay type: binding; details: read-out: Percent Control(%)
T1 construct: purchased DiscoveRx KINOMEscan (Ambit Biosciences)

[2] = molecular target: T2, JAK1(JH2domain-pseudokinase) (Homo sapiens, UniProt P23458); assay: KINOMEscan panel screen; assay type: binding; details: read-out: Percent Control(%)
T2 construct: JAK1(JH2domain-pseudokinase); purchased DiscoveRx KINOMEscan (Ambit Biosciences)

[3] = molecular target: T3, AAK1 (Homo sapiens, UniProt Q2M2I8); assay: KINOMEscan panel screen; assay type: binding; details: read-out: Percent Control(%)
T3 construct: purchased DiscoveRx KINOMEscan (Ambit Biosciences)

[4] = molecular target: T4, ACVRL1 (Homo sapiens, UniProt P37023); assay: KINOMEscan panel screen; assay type: binding; details: read-out: Percent Control(%)
T4 construct: purchased DiscoveRx KINOMEscan (Ambit Biosciences)
T4 sequence (P37023 22-503): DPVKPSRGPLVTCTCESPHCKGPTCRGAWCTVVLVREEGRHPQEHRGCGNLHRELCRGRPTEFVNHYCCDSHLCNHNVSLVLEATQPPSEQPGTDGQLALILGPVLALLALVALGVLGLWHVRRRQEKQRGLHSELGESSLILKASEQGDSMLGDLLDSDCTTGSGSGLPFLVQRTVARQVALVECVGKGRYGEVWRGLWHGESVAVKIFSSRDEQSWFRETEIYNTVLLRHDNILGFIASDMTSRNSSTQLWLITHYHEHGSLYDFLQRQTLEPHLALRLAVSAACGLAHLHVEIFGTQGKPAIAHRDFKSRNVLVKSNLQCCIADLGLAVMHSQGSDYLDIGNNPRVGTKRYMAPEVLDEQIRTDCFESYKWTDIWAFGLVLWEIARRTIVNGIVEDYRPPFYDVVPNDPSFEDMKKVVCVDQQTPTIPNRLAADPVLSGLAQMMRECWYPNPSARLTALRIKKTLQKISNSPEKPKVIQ

[5] = molecular target: T5, QSK (Homo sapiens, UniProt Q9Y2K2); assay: KINOMEscan panel screen; assay type: binding; details: read-out: Percent Control(%)
T5 construct: purchased DiscoveRx KINOMEscan (Ambit Biosciences)

[6] = molecular target: T6, CSK (Homo sapiens, UniProt P41240); assay: KINOMEscan panel screen; assay type: binding; details: read-out: Percent Control(%)
T6 construct: purchased DiscoveRx KINOMEscan (Ambit Biosciences)

[7] = molecular target: T7, DDR1 (Homo sapiens, UniProt Q08345); assay: KINOMEscan panel screen; assay type: binding; details: read-out: Percent Control(%)
T7 construct: purchased DiscoveRx KINOMEscan (Ambit Biosciences)

[8] = molecular target: T8, IGF1R (Homo sapiens, UniProt P08069); assay: KINOMEscan panel screen; assay type: binding; details: read-out: Percent Control(%)
T8 construct: DNA tag (qPCR read-out); purchased Ambit Biosciences (KINOMEscan service)

[9] = molecular target: T9, FLT3(N841I) (Homo sapiens, UniProt P36888, N841I); assay: KINOMEscan panel screen; assay type: binding; details: read-out: Percent Control(%)
T9 construct: purchased DiscoveRx KINOMEscan (Ambit Biosciences)

[10] = tested on: Miapaca-2; assay: MTT cell viability assay; details: Homo sapiens, MIA PaCa-2, 72 h
[11] = molecular target: T10, MYO3A (Homo sapiens, UniProt Q8NEV4); assay: KINOMEscan panel screen; assay type: binding; details: read-out: Percent Control(%)
T10 construct: purchased DiscoveRx KINOMEscan (Ambit Biosciences)

[12] = molecular target: T11, TRKB (Homo sapiens, UniProt Q16620); assay: KINOMEscan panel screen; assay type: binding; details: read-out: Percent Control(%)
T11 construct: purchased DiscoveRx KINOMEscan (Ambit Biosciences)

[13] = molecular target: T12, SRMS (Homo sapiens, UniProt Q9H3Y6); assay: KINOMEscan panel screen; assay type: binding; details: read-out: Percent Control(%)
T12 construct: purchased DiscoveRx KINOMEscan (Ambit Biosciences)

[14] = molecular target: T13, FGFR1 (Homo sapiens, UniProt P11362); assay: KINOMEscan kinase binding assay (Kd)
T13 construct: purchased DiscoveRx KINOMEscan (Ambit Biosciences)

[15] = tested on: C32; assay: MTT cell viability assay; details: Homo sapiens, C32, 72 h
[16] = molecular target: T14, TBK1 (Homo sapiens, UniProt Q9UHD2); assay: KINOMEscan panel screen; assay type: binding; details: read-out: Percent Control(%)
T14 construct: purchased DiscoveRx KINOMEscan (Ambit Biosciences)
T14 sequence (Q9UHD2 whole entry): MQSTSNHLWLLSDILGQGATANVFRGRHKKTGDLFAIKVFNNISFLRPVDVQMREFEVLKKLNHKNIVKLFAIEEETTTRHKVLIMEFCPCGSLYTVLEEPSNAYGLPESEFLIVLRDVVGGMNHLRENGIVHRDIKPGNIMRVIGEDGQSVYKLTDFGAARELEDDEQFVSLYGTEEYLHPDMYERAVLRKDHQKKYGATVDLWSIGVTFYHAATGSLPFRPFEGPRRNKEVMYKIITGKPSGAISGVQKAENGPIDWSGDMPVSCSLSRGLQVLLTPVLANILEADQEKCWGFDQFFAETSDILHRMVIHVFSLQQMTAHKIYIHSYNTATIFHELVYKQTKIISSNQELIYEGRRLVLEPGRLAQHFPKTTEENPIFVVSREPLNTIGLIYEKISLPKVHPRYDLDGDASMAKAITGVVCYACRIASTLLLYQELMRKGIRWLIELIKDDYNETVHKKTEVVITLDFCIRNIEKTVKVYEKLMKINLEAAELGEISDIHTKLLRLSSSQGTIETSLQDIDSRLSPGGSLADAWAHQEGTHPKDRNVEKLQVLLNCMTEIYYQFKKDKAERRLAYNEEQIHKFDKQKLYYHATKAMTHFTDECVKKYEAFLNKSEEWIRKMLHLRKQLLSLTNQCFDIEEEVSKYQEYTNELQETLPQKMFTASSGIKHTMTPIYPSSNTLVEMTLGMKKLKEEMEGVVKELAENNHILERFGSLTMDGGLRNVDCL

[17] = molecular target: T15, SRPK2 (Homo sapiens, UniProt P78362); assay: KINOMEscan panel screen; assay type: binding; details: read-out: Percent Control(%)
T15 construct: purchased DiscoveRx KINOMEscan (Ambit Biosciences)

[18] = molecular target: T16, PDGFRA (Homo sapiens, UniProt P16234); assay: KINOMEscan panel screen; assay type: binding; details: read-out: Percent Control(%)
T16 construct: purchased DiscoveRx KINOMEscan (Ambit Biosciences)
T16 sequence (P16234 24-1089): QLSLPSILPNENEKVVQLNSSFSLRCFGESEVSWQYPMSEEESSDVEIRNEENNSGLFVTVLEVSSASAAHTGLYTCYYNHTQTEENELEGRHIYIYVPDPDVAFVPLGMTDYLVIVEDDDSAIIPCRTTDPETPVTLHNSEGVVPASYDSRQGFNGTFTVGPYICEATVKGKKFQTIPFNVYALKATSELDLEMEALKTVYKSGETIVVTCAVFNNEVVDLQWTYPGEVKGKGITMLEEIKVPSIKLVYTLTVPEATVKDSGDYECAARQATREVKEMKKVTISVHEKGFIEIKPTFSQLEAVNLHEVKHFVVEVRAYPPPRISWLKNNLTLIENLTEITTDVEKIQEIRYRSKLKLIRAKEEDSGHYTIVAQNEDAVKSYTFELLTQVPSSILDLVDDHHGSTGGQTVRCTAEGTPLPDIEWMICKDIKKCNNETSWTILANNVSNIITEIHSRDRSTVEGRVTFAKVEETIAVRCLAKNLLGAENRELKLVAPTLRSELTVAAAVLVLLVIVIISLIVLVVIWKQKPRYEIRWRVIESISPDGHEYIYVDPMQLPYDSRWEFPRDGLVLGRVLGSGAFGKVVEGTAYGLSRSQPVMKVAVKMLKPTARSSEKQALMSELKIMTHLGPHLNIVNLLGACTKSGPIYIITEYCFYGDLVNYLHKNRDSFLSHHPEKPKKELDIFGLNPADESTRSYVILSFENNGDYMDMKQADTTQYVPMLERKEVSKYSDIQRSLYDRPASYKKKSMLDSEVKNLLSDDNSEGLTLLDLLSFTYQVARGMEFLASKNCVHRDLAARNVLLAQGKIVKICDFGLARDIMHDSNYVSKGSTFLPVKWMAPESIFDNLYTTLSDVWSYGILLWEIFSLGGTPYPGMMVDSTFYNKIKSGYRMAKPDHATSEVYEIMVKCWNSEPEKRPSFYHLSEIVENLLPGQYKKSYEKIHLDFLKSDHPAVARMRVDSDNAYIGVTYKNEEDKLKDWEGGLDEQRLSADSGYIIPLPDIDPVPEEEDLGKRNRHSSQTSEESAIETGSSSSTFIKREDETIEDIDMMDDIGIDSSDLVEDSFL

[19] = molecular target: T17, IKK-beta (Homo sapiens, UniProt O14920); assay: KINOMEscan panel screen; assay type: binding; details: read-out: Percent Control(%)
T17 construct: purchased DiscoveRx KINOMEscan (Ambit Biosciences)

[20] = molecular target: T18, LATS1 (Homo sapiens, UniProt O95835); assay: KINOMEscan panel screen; assay type: binding; details: read-out: Percent Control(%)
T18 construct: purchased DiscoveRx KINOMEscan (Ambit Biosciences)

[21] = molecular target: T19, CDK9 (Homo sapiens, UniProt P50750); assay: KINOMEscan panel screen; assay type: binding; details: read-out: Percent Control(%)
T19 construct: purchased DiscoveRx KINOMEscan (Ambit Biosciences)

[22] = tested on: phosphorylation of FLT3, STAT5 and Erk1/2 in MV4-11 cells; assay: Western blot of FLT3 signaling in MV4-11 cells; assay type: cell-based, human; details: 1 h treatment
Procedure: Western blot analysis was performed as previously described[43]. […] Quantitative analysis of the protein level was performed with NIH image analysis software, ImageJ (normalized relative to the vehicle control).
The phosphorylation levels of FLT3 and downstream signal proteins were detected used the same method as that in panel a.

[23] = molecular target: T20, NEK9 (Homo sapiens, UniProt Q8TD19); assay: KINOMEscan panel screen; assay type: binding; details: read-out: Percent Control(%)
T20 construct: purchased DiscoveRx KINOMEscan (Ambit Biosciences)

[24] = molecular target: T21, PAK6 (Homo sapiens, UniProt Q9NQU5); assay: KINOMEscan panel screen; assay type: binding; details: read-out: Percent Control(%)
T21 construct: purchased DiscoveRx KINOMEscan (Ambit Biosciences)
T21 sequence (Q9NQU5 whole entry): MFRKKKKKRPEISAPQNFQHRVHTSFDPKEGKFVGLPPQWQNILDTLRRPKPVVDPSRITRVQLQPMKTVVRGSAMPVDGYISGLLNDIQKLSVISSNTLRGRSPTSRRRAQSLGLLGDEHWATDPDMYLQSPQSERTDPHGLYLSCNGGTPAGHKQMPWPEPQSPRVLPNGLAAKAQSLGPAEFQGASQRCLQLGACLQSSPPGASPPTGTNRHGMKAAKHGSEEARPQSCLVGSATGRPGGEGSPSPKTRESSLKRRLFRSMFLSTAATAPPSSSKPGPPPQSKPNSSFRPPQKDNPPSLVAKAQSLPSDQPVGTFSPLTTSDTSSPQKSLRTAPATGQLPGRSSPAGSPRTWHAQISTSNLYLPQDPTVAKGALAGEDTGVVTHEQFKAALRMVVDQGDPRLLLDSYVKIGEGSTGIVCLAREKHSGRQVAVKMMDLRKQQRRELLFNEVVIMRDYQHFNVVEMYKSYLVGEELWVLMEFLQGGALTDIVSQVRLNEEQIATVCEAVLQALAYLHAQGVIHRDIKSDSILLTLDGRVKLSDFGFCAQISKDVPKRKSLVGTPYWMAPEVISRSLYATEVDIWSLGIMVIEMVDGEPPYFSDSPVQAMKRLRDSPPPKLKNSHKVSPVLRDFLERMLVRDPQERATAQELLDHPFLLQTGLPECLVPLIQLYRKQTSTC

[25] = molecular target: T22, PKMYT1 (Homo sapiens, UniProt Q99640); assay: KINOMEscan panel screen; assay type: binding; details: read-out: Percent Control(%)
T22 construct: purchased DiscoveRx KINOMEscan (Ambit Biosciences)

[26] = molecular target: T23, ABL2 (Homo sapiens, UniProt P42684); assay: KINOMEscan panel screen; assay type: binding; details: read-out: Percent Control(%)
T23 construct: purchased DiscoveRx KINOMEscan (Ambit Biosciences)

[27] = tested on: EGFR(L747-T751del,Sins); assay: KINOMEscan panel screen; assay type: binding; details: 10 μM
[28] = molecular target: T24, CSNK1A1 (Homo sapiens, UniProt P48729); assay: KINOMEscan panel screen; assay type: binding; details: read-out: Percent Control(%)
T24 construct: purchased DiscoveRx KINOMEscan (Ambit Biosciences)
T24 sequence (P48729 whole entry): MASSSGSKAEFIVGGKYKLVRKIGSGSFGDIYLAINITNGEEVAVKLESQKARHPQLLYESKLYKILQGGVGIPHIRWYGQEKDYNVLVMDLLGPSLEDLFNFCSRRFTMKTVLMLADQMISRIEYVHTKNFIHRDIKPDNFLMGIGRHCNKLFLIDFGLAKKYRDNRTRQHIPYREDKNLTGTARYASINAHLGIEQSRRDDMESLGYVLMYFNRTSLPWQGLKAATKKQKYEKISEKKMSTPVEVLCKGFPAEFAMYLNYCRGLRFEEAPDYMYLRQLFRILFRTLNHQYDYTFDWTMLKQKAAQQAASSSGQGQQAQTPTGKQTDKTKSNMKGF

[29] = molecular target: T25, CDK11 (Homo sapiens, UniProt Q9BWU1); assay: KINOMEscan panel screen; assay type: binding; details: read-out: Percent Control(%)
T25 construct: purchased DiscoveRx KINOMEscan (Ambit Biosciences)

[30] = molecular target: T26, PLK2 (Homo sapiens, UniProt Q9NYY3); assay: KINOMEscan panel screen; assay type: binding; details: read-out: Percent Control(%)
T26 construct: purchased DiscoveRx KINOMEscan (Ambit Biosciences)

[31] = molecular target: T27, ABL1(T315I)-nonphosphorylated (Homo sapiens, UniProt P00519, T315I); assay: KINOMEscan panel screen; assay type: binding; details: read-out: Percent Control(%)
T27 construct: purchased DiscoveRx KINOMEscan (Ambit Biosciences)

[32] = molecular target: T28, HUNK (Homo sapiens, UniProt P57058); assay: KINOMEscan panel screen; assay type: binding; details: read-out: Percent Control(%)
T28 construct: purchased DiscoveRx KINOMEscan (Ambit Biosciences)
T28 sequence (P57058 whole entry): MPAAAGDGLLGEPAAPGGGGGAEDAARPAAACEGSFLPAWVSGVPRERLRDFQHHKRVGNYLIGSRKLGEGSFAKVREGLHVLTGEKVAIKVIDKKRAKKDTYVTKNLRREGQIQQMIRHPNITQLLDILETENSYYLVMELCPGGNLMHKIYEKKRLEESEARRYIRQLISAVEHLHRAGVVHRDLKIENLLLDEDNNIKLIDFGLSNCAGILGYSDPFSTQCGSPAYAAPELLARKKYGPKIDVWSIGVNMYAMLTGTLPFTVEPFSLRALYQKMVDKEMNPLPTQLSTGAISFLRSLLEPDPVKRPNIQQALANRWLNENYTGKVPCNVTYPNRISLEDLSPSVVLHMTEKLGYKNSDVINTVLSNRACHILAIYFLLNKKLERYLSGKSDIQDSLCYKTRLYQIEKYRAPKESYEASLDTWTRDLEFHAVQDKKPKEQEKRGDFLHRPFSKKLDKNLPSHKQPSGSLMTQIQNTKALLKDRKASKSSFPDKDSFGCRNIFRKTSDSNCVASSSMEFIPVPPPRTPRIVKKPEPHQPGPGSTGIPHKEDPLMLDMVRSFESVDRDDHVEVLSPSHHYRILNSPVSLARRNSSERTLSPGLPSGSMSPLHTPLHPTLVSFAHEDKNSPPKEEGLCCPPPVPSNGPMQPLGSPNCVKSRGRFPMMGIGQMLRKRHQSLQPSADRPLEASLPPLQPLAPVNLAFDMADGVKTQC

[33] = molecular target: PAK1 (Homo sapiens, UniProt Q13153); assay: KINOMEscan panel screen; assay type: binding; details: read-out: Percent Control(%)
[34] = molecular target: T29, CAMK2G (Homo sapiens, UniProt Q13555); assay: KINOMEscan panel screen; assay type: binding; details: read-out: Percent Control(%)
T29 construct: purchased DiscoveRx KINOMEscan (Ambit Biosciences)

[35] = molecular target: T30, PYK2 (Homo sapiens, UniProt Q14289); assay: KINOMEscan panel screen; assay type: binding; details: read-out: Percent Control(%)
T30 construct: purchased DiscoveRx KINOMEscan (Ambit Biosciences)
T30 sequence (Q14289 whole entry): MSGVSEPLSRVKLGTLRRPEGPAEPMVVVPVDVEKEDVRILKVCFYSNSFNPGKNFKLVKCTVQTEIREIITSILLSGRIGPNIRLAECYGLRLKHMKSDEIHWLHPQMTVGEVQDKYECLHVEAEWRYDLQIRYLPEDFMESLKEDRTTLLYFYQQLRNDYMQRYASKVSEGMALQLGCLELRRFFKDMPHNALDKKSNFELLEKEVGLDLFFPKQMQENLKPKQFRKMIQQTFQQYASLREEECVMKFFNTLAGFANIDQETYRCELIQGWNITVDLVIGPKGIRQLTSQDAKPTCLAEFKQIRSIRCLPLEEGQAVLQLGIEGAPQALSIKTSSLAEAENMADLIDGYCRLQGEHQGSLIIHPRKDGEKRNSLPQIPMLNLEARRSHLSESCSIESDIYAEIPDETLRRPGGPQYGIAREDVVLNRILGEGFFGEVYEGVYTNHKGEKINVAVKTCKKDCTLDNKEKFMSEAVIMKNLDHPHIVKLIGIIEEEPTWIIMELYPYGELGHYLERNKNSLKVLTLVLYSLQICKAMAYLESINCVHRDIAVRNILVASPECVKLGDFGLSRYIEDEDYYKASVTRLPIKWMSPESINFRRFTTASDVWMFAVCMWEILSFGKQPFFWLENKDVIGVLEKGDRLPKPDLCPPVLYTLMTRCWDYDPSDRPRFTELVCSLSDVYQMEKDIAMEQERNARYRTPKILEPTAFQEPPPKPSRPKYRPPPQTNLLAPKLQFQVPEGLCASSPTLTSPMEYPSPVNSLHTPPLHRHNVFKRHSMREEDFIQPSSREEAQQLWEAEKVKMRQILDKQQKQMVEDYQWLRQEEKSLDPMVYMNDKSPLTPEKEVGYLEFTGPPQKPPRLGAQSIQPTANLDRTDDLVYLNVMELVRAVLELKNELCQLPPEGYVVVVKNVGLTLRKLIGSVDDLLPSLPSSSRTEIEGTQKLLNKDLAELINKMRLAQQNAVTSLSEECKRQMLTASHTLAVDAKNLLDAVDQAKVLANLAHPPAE

[36] = molecular target: T31, CAMK4 (Homo sapiens, UniProt Q16566); parameters: method as in earlier work; details: Table S1; cited from earlier work
T31 construct: purchased DiscoveRx KINOMEscan (Ambit Biosciences)
T31 sequence (Q16566 1-473): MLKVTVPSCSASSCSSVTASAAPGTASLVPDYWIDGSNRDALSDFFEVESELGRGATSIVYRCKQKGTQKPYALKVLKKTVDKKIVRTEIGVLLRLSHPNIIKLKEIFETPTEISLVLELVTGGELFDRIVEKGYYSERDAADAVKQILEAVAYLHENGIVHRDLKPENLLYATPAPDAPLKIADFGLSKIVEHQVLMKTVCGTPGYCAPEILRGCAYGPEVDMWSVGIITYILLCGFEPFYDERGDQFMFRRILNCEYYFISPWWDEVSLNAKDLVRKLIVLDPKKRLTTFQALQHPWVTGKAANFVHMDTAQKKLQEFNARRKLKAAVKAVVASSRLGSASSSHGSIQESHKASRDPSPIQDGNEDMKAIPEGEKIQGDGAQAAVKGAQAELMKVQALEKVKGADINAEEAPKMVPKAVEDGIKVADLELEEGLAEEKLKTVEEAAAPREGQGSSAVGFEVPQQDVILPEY

SMILES: CC(C)(C)c1cc(NC(=O)Nc2ccc(Oc3ncnc4[nH]ncc34)c(F)c2)no1 [SKLB-677, 1-(4-(1H-pyrazolo[3,4-d]pyrimidin-4-yloxy)-3-fluorophenyl)-3-(5-tert-butylisoxazol-3-yl)urea]
- remaining binding at 10 µM [1]: 98%
- remaining binding at 10 µM [2]: 74%
- remaining binding at 10 µM [3]: 72%
- remaining binding at 10 µM [4]: 91%
- remaining binding at 10 µM [5]: 91%
- remaining binding at 10 µM [6]: 76%
- remaining binding at 10 µM [7]: 3.6%
- remaining binding at 10 µM [8]: 70%
- remaining binding at 10 µM [9]: 0%
- IC50 [10]: > 10000 nM
- remaining binding at 10 µM [11]: 11%
- remaining binding at 10 µM [12]: 0.05%
- remaining binding at 10 µM [13]: 57%
- Kd [14]: 600 nM
- IC50 [15]: > 10000 nM
- remaining binding at 10 µM [16]: 70%
- remaining binding at 10 µM [17]: 100%
- remaining binding at 10 µM [18]: 0.25%
- remaining binding at 10 µM [19]: 64%
- remaining binding at 10 µM [20]: 47%
- remaining binding at 10 µM [21]: 5.6%
- concentration at which activation of STAT5 and Erk1/2 was efficiently inhibited [22]: higher than 1 nM
- IC50 ([22]; Homo sapiens, read-out: IC50, reduction in the phosphorylation level of FLT3): ~0.1 nM
- remaining binding at 10 µM [23]: 54%
- remaining binding at 10 µM [24]: 90%
- remaining binding at 10 µM [25]: 100%
- remaining binding at 10 µM [26]: 13%
- Percent Control(%) [27]: 61%
- remaining binding at 10 µM [28]: 100%
- remaining binding at 10 µM [29]: 0.1%
- remaining binding at 10 µM [30]: 100%
- remaining binding at 10 µM [31]: 3%
- remaining binding at 10 µM [32]: 80%
- remaining binding at 10 µM [33]: 68%
- remaining binding at 10 µM [34]: 66%
- remaining binding at 10 µM [35]: 64%

SMILES: O=C(Nc1ccc(Oc2ncnc3[nH]ncc23)cc1)Nc1ccc(Cl)c(C(F)(F)F)c1 [Compound 1, 1-(4-(1H-pyrazolo[3,4-d]pyrimidin-4-yloxy)phenyl)-3-(4-chloro-3-(trifluoromethyl)phenyl)urea]
- IC50 [36]: > 10000 nM
